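Grown in 96-well plates, cells were treated for 48 hours with each compound at five concentrations. Insufficient inhibition: endpoint recorded as highest concentration tested. TGI is the concentration that stops growth completely.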
Legend:
Experiment in all cases: NCI anticancer screen, dose series, 48 h
[1] = test system: DLD-1 colon
[2] = test system: DMS 114 small cell lung
[3] = test system: DMS 273 small cell lung
[4] = test system: M19-MEL melanoma
[5] = test system: SNB-78 CNS
[6] = test system: XF 498 CNS
[7] = test system: LXFL 529 NSCLC
[8] = test system: RXF-631 renal
[9] = test system: HOP-18 NSCLC

Question: With `Cc1ccccc1SC(/C=C/NNC1=NC(c2ccccc2)C(c2ccccc2)=NN1)c1ccccc1` (stereo unspecified) as the compound, how does the TGI [1] read?
Answer: Its TGI is > 100 µM.

Question: What about the TGI [2] of the same compound?
Answer: The TGI was 78.4 µM.

Question: What about the TGI [3] of the same compound?
Answer: Its TGI is > 100 µM.

Question: And the TGI [4]?
Answer: The TGI was > 100 µM.

Question: What about the TGI [5] of the same compound?
Answer: The TGI was 73.9 µM.

Question: What about the TGI [6] of the same compound?
Answer: The TGI was 60.4 µM.

Question: Which results are given for `Oc1ccc(O)c(-n2cccn2)c1`?
Answer: TGI [1]: > 100 µM; TGI [2]: 89.7 µM; TGI [3]: > 100 µM; TGI [7]: 38.9 µM; TGI [4]: 76.1 µM; TGI [8]: > 100 µM; TGI [5]: > 100 µM; TGI [6]: > 100 µM

Question: How did the TGI [1] turn out when `OC(c1cc2ccccc2[nH]1)C(O)(c1cc2ccccc2[nH]1)c1cc2ccccc2[nH]1` (stereo unspecified) was run?
Answer: The TGI was 48 µM.

Question: And the TGI [2]?
Answer: The TGI was 29 µM.

Question: What about the TGI [3] of the same compound?
Answer: The TGI was 48.8 µM.

Question: What about the TGI [7] of the same compound?
Answer: The TGI was 40.2 µM.

Question: And the TGI [4]?
Answer: The TGI was 23.1 µM.

Question: What about the TGI [8] of the same compound?
Answer: The TGI was 58.3 µM.

Question: `CC(C)(C)OC(=O)NC(Cc1ccccc1)C(=S)N1CCCC1` (stereo unspecified) was tested. Which TGI [1] did it give?
Answer: Its TGI is > 100 µM.

Question: What about the TGI [2] of the same compound?
Answer: The TGI was > 100 µM.

Question: And the TGI [3]?
Answer: Its TGI is > 100 µM.

Question: And the TGI [9]?
Answer: The TGI was > 100 µM.

Question: What about the TGI [7] of the same compound?
Answer: Its TGI is > 100 µM.

Question: And the TGI [4]?
Answer: The TGI was > 100 µM.

Question: And the TGI [8]?
Answer: The TGI was > 100 µM.

Question: And the TGI [5]?
Answer: Its TGI is > 100 µM.

Question: And the TGI [6]?
Answer: The TGI was > 100 µM.

Question: `O=C(/C=C/c1ccc(-c2ccccc2)cc1)c1ccccc1` was tested. Which TGI [1] did it give?
Answer: The TGI was > 100 µM.

Question: What about the TGI [2] of the same compound?
Answer: Its TGI is 31.8 µM.

Question: What about the TGI [9] of the same compound?
Answer: Its TGI is > 100 µM.

Question: And the TGI [7]?
Answer: The TGI was 42.2 µM.

Question: What about the TGI [4] of the same compound?
Answer: The TGI was 48.5 µM.

Question: What about the TGI [8] of the same compound?
Answer: Its TGI is 69 µM.

Question: And the TGI [5]?
Answer: The TGI was > 100 µM.

Question: And the TGI [6]?
Answer: Its TGI is 53.1 µM.

Question: Which results are given for `COC(=O)C(/C(=N/N)C(=O)Nc1cc(Cl)ccc1Cl)c1nc2ccc([N+](=O)[O-])cc2[nH]c1=O` (stereo unspecified)?
Answer: TGI [2]: > 100 µM; TGI [3]: > 100 µM; TGI [7]: > 100 µM; TGI [5]: > 100 µM; TGI [6]: > 100 µM

Question: With `O=C(NC1CCCCC1)NC12CC3CC(CC(F)(C3)C1)C2` as the compound, how does the TGI [1] read?
Answer: The TGI was > 100 µM.

Question: What about the TGI [2] of the same compound?
Answer: Its TGI is > 100 µM.

Question: What about the TGI [3] of the same compound?
Answer: The TGI was > 100 µM.

Question: What about the TGI [7] of the same compound?
Answer: The TGI was > 100 µM.

Question: And the TGI [4]?
Answer: The TGI was > 100 µM.

Question: What about the TGI [8] of the same compound?
Answer: The TGI was > 100 µM.

Question: And the TGI [5]?
Answer: The TGI was > 100 µM.

Question: What about the TGI [6] of the same compound?
Answer: Its TGI is > 100 µM.

Question: How did the TGI [1] turn out when `CC1=C(C(=O)O)N2C(=O)[C@@H](NC(=O)C(c3ccccc3)N3CSC(=S)N(C(C)C)C3)C2SC1` (stereo partly specified) was run?
Answer: Its TGI is > 100 µM.

Question: And the TGI [3]?
Answer: Its TGI is > 100 µM.

Question: What about the TGI [9] of the same compound?
Answer: Its TGI is > 100 µM.

Question: And the TGI [7]?
Answer: Its TGI is > 100 µM.

Question: And the TGI [4]?
Answer: Its TGI is > 100 µM.

Question: And the TGI [5]?
Answer: Its TGI is > 100 µM.

Question: What about the TGI [6] of the same compound?
Answer: Its TGI is > 100 µM.

Question: For `COc1ccc(C2=NN(C(C)=O)c3nc4ccccc4nc3O2)cc1`, which TGI [1] is on record?
Answer: The TGI was 88 µM.

Question: And the TGI [2]?
Answer: Its TGI is > 100 µM.

Question: What about the TGI [3] of the same compound?
Answer: Its TGI is > 100 µM.

Question: And the TGI [9]?
Answer: Its TGI is 88.9 µM.

Question: What about the TGI [7] of the same compound?
Answer: The TGI was > 100 µM.

Question: What about the TGI [4] of the same compound?
Answer: The TGI was > 100 µM.

Question: And the TGI [8]?
Answer: The TGI was > 100 µM.

Question: What about the TGI [6] of the same compound?
Answer: The TGI was 49.2 µM.

Question: What does the source list for `C/C(=N\N)C(CN1CCOCC1)C(c1ccccc1)c1c(O)c2ccccc2oc1=O` (stereo unspecified)?
Answer: TGI [1]: > 100 µM; TGI [2]: > 100 µM; TGI [3]: > 100 µM; TGI [7]: > 100 µM; TGI [4]: > 100 µM; TGI [5]: > 100 µM

— PubChem BioAssay (NCI)
